Test results published in US9593305B2, “Differentiation of pluripotent stem cells” (Janssen Biotech, Inc., priority 2008, dated 2017).

Assays:
[1] = system: H1 human embryonic stem cells; assay: Step-wise differentiation, RT-PCR of differentiation markers (Example 12, Table 13); assay type: cell-based; conditions: GDF-8 200 ng/ml with Wnt3a or 2.5 μM compound in step 1, versus activin A/Wnt3a
Description: Stock cultures of human embryonic stem cells (H1 human embryonic stem cell line) were maintained in an undifferentiated, pluripotent state on reduced growth factor […]™-coated dishes in MEF conditioned medium with passage on average every four days. Passage was performed by exposing cell cultures to a solution of 1 mg/ml dispase (Invitrogen; Cat #17105-041) for 5 to 7 minutes at 37° C. followed by rinsing the monolayer with MEF conditioned culture medium and gentle scraping to recover cell clusters. Clusters were centrifuged at low speed to collect a cell pellet and remove residual dispase. Cell clusters were split at a 1:3 or 1:4 ratio for routine maintenance culture or a 1:1 ratio for immediate assay. All human ES cell lines were maintained at passage numbers less than 50 and routinely evaluated for normal karyotype and absence of mycoplasma.
Cell clusters were evenly resuspended in MEF conditioned medium supplemented with 8 ng/ml bFGF and seeded onto reduced growth factor […]™-coated 24-well, black wall culture plates (Arctic White; Cat #AWLS-303012) in volumes of 0.5 ml/well. Daily feeding was conducted by aspirating spent culture medium from each well and replacing with an equal volume of fresh medium. Plates were maintained at 37° C., 5% CO2 throughout the duration of assay.
The assay was initiated by aspirating the culture medium from each well and adding back an aliquot (0.5 ml) of test medium. Test conditions for the first step of differentiation were conducted over a three-day period, feeding daily by aspirating and replacing the medium from each well with fresh test medium. On the first day of assay, 100 ng/ml activin A (PeproTech; Cat #120-14) or 200 ng/ml GDF-8 (R&D Systems, Cat #788-G8) was added to respective assay wells where each growth factor was diluted into RPMI-1640 medium (Invitrogen; Cat #22400) with 1% Albumin Bovine Fraction V, Fatty Acid Free (FAF BSA) (MP Biomedicals, Inc; Cat 152401), 1% Probumin (Millipore; Cat #81-068-3) and 20 ng/ml Wnt3a (R&D Systems; Cat #1324-WN/CF). […]

[2] = system: H1 human embryonic stem cells; assay: Step-wise differentiation, FACS for CXCR4 after step 1 (Example 12); assay type: cell-based; conditions: compared to activin A and Wnt3a
Description: The assay was initiated by aspirating the culture medium from each well and adding back an aliquot (0.5 ml) of test medium. Test conditions for the first step of differentiation were conducted over a three-day period, feeding daily by aspirating and replacing the medium from each well with fresh test medium. On the first day of assay, 100 ng/ml activin A (PeproTech; Cat #120-14) or 200 ng/ml GDF-8 (R&D Systems, Cat #788-G8) was added to respective assay wells where each growth factor was diluted into RPMI-1640 medium (Invitrogen; Cat #22400) with 1% Albumin Bovine Fraction V, Fatty Acid Free (FAF BSA) (MP Biomedicals, Inc; Cat 152401), 1% Probumin (Millipore; Cat #81-068-3) and 20 ng/ml Wnt3a (R&D Systems; Cat #1324-WN/CF). On the second day of assay, 100 ng/ml activin A or 200 ng/ml GDF-8 was diluted into RPMI-1640 medium supplemented with 2% FAF BSA without Wnt3a. In some test samples using GDF-8, Wnt3a was replaced with a either Compound 34 or Compound 56 at a concentration of 2.5 μM, and either Compound 34 or Compound 56 was added daily during all three days of definitive endoderm differentiation. At the conclusion of the first step of differentiation, cells from some wells were harvested for flow cytometry analysis to evaluate levels of CXCR4, a marker of definitive endoderm formation. Additional wells were harvested for RT-PCR analysis to measure other markers of differentiation.
Cells for FACS analysis were blocked in a 1:5 solution of 0.5% human gamma-globulin (Sigma; Cat#G-4386) in PBS (Invitrogen; Cat #14040-133): BD FACS staining buffer-BSA (BD; Cat #554657) for 15 minutes at 4° C. Cells were then stained with antibodies for CD9 PE (BD; Cat #555372), CD99 PE (Caltag; Cat #MHCD9904) and CXCR4 APC(R&D Systems; Cat#FAB 173A) for 30 minutes at 4° C. After a series of washes in BD FACS staining buffer, the cells were stained for viability with 7-AAD (BD; Cat #559925) and run on a BD FACSAiray. A mouse IgG1K Isotype control antibody for both PE and APC was used to gate percent positive cells.

[3] = 200 ng/ml GDF-8 with 2.5 μM compound all three days

Row | Molecule | expression levels of markers associated with endodermal and endocrine differentiation (PCR) [1] | percentage of CXCR4 positive cells after step 1 [2, 3] | percentage of CXCR4 positive cells after step 1 ([2]; 200 ng/ml GDF-8 with Wnt3a)
1 | O=C1CCN2CCN(CC2)Cc2cc(Cl)cc(c2)Nc2ncnc(n2)-c2cncc(c2)CCCN1 [Compound 34, 5-Chloro-1,8,10,12,16,22,26,32-octaazapentacyclo[24.2.2.1˜3.7˜0.1˜9,13˜0.1˜14.18˜]tritriaconta-3(33), 4,6,9(32), 10,12,14(31), 15,17-nonaen-23-one] | similar, or in some instances, improved expression levels | equivalent or higher percentage of CXCR4 positive cells | –
2 | GDF-8: growth factor GDF-8, also known as myostatin, member of the TGF-β family | similar, or in some instances, improved expression levels | – | equivalent percentage of CXCR4 positive cells
3 | Cc1c[nH]c(-c2cnc(NCCNc3ccc(C#N)cn3)nc2-c2ccc(Cl)cc2Cl)n1 [Compound 56, 6-[(2-{[4-(2,4-Dichlorophenyl)-5-(4-methyl-1H-imidazol-2-yl)pyrimidin-2-yl]amino}ethyl)amino]pyridine-3-carbonitrile] | similar, or in some instances, improved expression levels | equivalent or higher percentage of CXCR4 positive cells | –
